In the OPERA property sets (Mansouri et al. 2018):

For `Cc1nc(Br)n(C)c1[N+](=O)[O-]`, which logP is on record?
The logP was 0.82.

For `Cn1cnc([N+](=O)[O-])c1`, which logP is on record?
The logP was -0.44.

With `COc1nc[nH]c1[N+](=O)[O-]` as the compound, how does the logP read?
The logP was 0.13.

For `Cc1nc([N+](=O)[O-])c(Br)[nH]1`, which logP is on record?
Its logP is 1.14.

For `Cn1cnc(Br)c1[N+](=O)[O-]`, which logP is on record?
The logP was 0.77.

For `COc1nc(C)[nH]c1[N+](=O)[O-]`, which logP is on record?
Its logP is 0.21.

For `Cn1ccnc1[N+](=O)[O-]`, which logP is on record?
Its logP is -0.17.

Which logP does the source give for `O=[N+]([O-])c1nc[nH]c1Br` here?
Its logP is 0.85.

For `Cc1[nH]c(Br)nc1[N+](=O)[O-]`, which logP is on record?
Its logP is 0.86.

With `Cn1cc([N+](=O)[O-])nc1Cl` as the compound, how does the logP read?
The logP was 0.19.

Which logP does the source give for `Cc1[nH]cnc1[N+](=O)[O-]` here?
The logP was 0.23.

With `Cn1cc([N+](=O)[O-])nc1Br` as the compound, how does the logP read?
Its logP is 0.33.

Which logP does the source give for `Cn1c([N+](=O)[O-])cnc1Cl` here?
The logP was 0.62.

With `Cn1cnc([N+](=O)[O-])c1N` as the compound, how does the logP read?
Its logP is -1.

Which logP does the source give for `Cn1cncc1[N+](=O)[O-]` here?
Its logP is 0.13.

For `Cn1cnc([N+](=O)[O-])c1Br`, which logP is on record?
Its logP is 0.36.

Which logP does the source give for `COc1c([N+](=O)[O-])ncn1C` here?
Its logP is 0.19.

With `Cn1cnc(Cl)c1[N+](=O)[O-]` as the compound, how does the logP read?
Its logP is 0.69.

With `O=[N+]([O-])c1nc[nH]c1Cl` as the compound, how does the logP read?
Its logP is 0.78.
